The text below walks through data of patent publication US10173991B2, “Sulfone amide linked benzothiazole inhibitors of endothelial lipase” (BRISTOL-MYERS SQUIBB COMPANY, priority 2014, dated 2019).

pIC50: −log10 of the molar value.

Broadly, the pIC50 is −log10 of the IC50, conventionally taken in molar units. High values mean a low IC50, low ones a high IC50.

Endothelial lipase (EL), sequence (Q9Y5X9 21-500): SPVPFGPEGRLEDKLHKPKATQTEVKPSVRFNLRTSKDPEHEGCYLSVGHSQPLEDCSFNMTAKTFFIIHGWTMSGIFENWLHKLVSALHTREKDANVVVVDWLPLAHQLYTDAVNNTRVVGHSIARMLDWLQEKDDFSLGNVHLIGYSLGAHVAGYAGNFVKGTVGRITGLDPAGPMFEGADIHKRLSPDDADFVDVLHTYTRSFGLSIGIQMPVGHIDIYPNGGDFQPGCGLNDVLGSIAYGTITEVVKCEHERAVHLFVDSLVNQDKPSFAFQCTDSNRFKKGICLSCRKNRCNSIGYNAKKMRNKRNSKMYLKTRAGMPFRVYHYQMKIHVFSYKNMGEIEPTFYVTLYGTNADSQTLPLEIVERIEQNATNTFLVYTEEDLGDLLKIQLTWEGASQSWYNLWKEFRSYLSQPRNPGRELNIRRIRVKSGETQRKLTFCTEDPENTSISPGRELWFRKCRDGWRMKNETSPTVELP

This assay addresses Endothelial lipase (EL) (Homo sapiens (Human), UniProt Q9Y5X9). Put plainly: Endothelial lipase (EL) enzymatic assay with fluorescent substrate A10070 in DMPG vesicles. The assay is classed as biochemical. The method, boiled down: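 EL from conditioned medium of HT-1080 cells engineered to overexpress endogenous EL; HL partially purified from conditioned medium of HL-overexpressing COS cells. Enzyme preincubated with compound 30 min at 37° C in 50 mM HEPES pH 8.0, 50 mM NaCl, 1 mM CaCl2; DMPG vesicles carrying FRET substrate (0.11 mole fraction) then added.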
The molecule `COc1cncc(-c2cc3sc(C(C(=O)NCC(=O)NC4CC4)S(C)(=O)=O)nc3cc2F)c1` (stereo not drawn) [Example 324, N-[(cyclopropyl-carbamoyl)methyl]-2-[5-fluoro-6-(5-methoxypyridin-3-yl)-1,3-benzothiazol-2-yl]-2-methanesulfonyl-acetamide] had a negative logarithm of the IC50 (pIC50) of 7.82.
`COCCS(=O)(=O)C(C(=O)NCC(=O)NC1CC1)c1nc2cc(-c3cccc(C(=O)NCCO)c3)ccc2s1` (stereo not drawn) [Example 399, 3-[2-({[(cyclopropyl-carbamoyl)methyl]carbamoyl}(2-methoxyethane-sulfonyl)methyl)-1,3-benzothiazol-5-yl]-N-(2-hydroxyethyl) benzamide]: the pIC50 is 7.20.
For `COCCS(=O)(=O)C(C(=O)NCC(=O)NC1CC1)c1nc2ccc(-c3ccc(C(F)(F)F)nc3)cc2s1` (stereo not drawn) [Example 296, N-[(cyclopropyl-carbamoyl)methyl]-2-(2-methoxyethane-sulfonyl)-2-{6-[6-(trifluoromethyl)pyridin-3-yl]-1,3-benzothiazol-2-yl}acetamide], the negative-log IC50 (pIC50) was 7.16.
Consider `COCCS(=O)(=O)C(C(=O)NCC(=O)NC1CC1)c1nc2cc(F)c(-c3ccc(C)nc3)cc2s1` (stereo not drawn) [Example 158, N-[(cyclopropyl-carbamoyl)methyl]-2-[5-fluoro-6-(6-methylpyridin-3-yl)-1,3-benzothiazol-2-yl]-2-(2-methoxyethane-sulfonyl) acetamide], for which the pIC50 is 7.96.
The figure for `COCCS(=O)(=O)C(C(=O)NCC(=O)NC1CC1)c1nc2cc(-c3ccc(CNC(C)=O)cc3)ccc2s1` (stereo not drawn) [Example 332, N-[(cyclopropyl-carbamoyl)methyl]-2-{5-[4-(acetamidomethyl)phenyl]-1,3-benzothiazol-2-yl}-2-(2-methoxyethane-sulfonyl)acetamide] is 8.00; for `CC(C)n1cc(-c2cc(F)c3nc(C(C(=O)NCC(=O)NC4CC4)S(=O)(=O)c4ccc(F)cc4)sc3c2)ccc1=O` (stereo not drawn) [Example 470, N-[(cyclopropyl-carbamoyl)methyl]-2-{4-fluoro-6-[6-oxo-1-(propan-2-yl)-1,6-dihydropyridin-3-yl]-1,3-benzothiazol-2-yl}-2-(4-fluorobenzene-sulfonyl)acetamide] it is 7.80.
The value for `CC(C)S(=O)(=O)C(C(=O)NCC(=O)NC1CC1)c1nc2cc(F)c(-c3cnc(C4CC4)nc3)cc2s1` (stereo not drawn) [Example 243, N-[(cyclopropyl-carbamoyl)methyl]-2-[6-(2-cyclopropyl-pyrimidin-5-yl)-5-fluoro-1,3-benzothiazol-2-yl]-2-(propane-2-sulfonyl) acetamide] was 7.48; that for `CC(=O)Nc1cccc(-c2ccc3nc(C(C(=O)NCC(=O)NC4CC4)S(=O)(=O)Cc4cccc(C#N)c4)sc3c2)c1` (stereo not drawn) [Example 279] was 7.05; that for `COCCS(=O)(=O)C(C(=O)NCC(=O)NC1CC1)c1nc2ccc(-c3ccc(C(N)=O)cc3)cc2s1` (stereo not drawn) [Example 329, 4-[2-({[(cyclopropyl-carbamoyl)methyl]carbamoyl}(2-methoxyethane-sulfonyl)methyl)-1,3-benzothiazol-6-yl]benzamide] was 7.34.
In the case of `COCCS(=O)(=O)C(C(=O)NCC(=O)NC1CC1)c1nc2cc(-c3cnc(C)nc3)c(F)cc2s1` (stereo not drawn) [Example 346, N-[(cyclopropyl-carbamoyl)methyl]-2-[6-fluoro-5-(2-methylpyrimidin-5-yl)-1,3-benzothiazol-2-yl]-2-(2-methoxyethane-sulfonyl)acetamide], the negative-log IC50 (pIC50) was 8.22.
The value for `COCCNC(=O)c1ccc(-c2ccc3sc(C(C(=O)NCC(=O)NC4CC4)S(=O)(=O)CCOC)nc3c2)cc1` (stereo not drawn) [Example 334, 4-[2-({[(cyclopropyl-carbamoyl)methyl]carbamoyl}(2-methoxyethane-sulfonyl)methyl)-1,3-benzothiazol-5-yl]-N-(2-methoxyethyl) benzamide] was 7.82; that for `O=C(CNC(=O)C(c1nc2cc(F)c(-c3cccc(NC(=O)OCc4ccccc4)c3)cc2s1)S(=O)(=O)CCC(F)(F)F)NC1CC1` (stereo not drawn) [Example 553, benzyl N-{3-[2-({[(cyclopropyl-carbamoyl)methyl]carbamoyl}(3,3,3-trifluoropropane-sulfonyl)methyl)-5-fluoro-1,3-benzothiazol-6-yl]phenyl} carbamate] was 9.00.
With `COCCS(=O)(=O)C(C(=O)NCC(=O)NC1CC1)c1nc2cc(F)c(-c3ccc(NC(N)=O)cc3)cc2s1` (stereo not drawn) [Example 4, 2-{6-[4-(carbamoyl-amino)phenyl]-5-fluoro-1,3-benzothiazol-2-yl}-N-[(cyclopropyl-carbamoyl)methyl]-2-(2-methoxy-ethanesulfonyl) acetamide], the pIC50 is 8.05.
Take `COCCS(=O)(=O)C(C(=O)NCC(=O)NC1COC1)c1nc2cc(-c3ccc(F)nc3)ccc2s1` (stereo not drawn) [Example 386, 2-[5-(6-fluoropyridin-3-yl)-1,3-benzothiazol-2-yl]-2-(2-methoxyethane-sulfonyl)-N-{[(oxetan-3-yl)carbamoyl]methyl} acetamide]: the pIC50 is 7.60.
For `COCCS(=O)(=O)C(C(=O)NCC(=O)NC1CC1)c1nc2ccc(-c3ccc4c(c3)C(=O)NC4)cc2s1` (stereo not drawn) [Example 344, N-[(cyclopropyl-carbamoyl)methyl]-2-(2-methoxyethane-sulfonyl)-2-[6-(3-oxo-2,3-dihydro-1H-isoindol-5-yl)-1,3-benzothiazol-2-yl]acetamide], the pIC50 is 7.01.
The figure for `O=C(CNC(=O)C(c1nc2c(F)cc(-c3ccc4[nH]c(=O)ccc4c3)cc2s1)S(=O)(=O)c1ccc(F)cc1)NC1CC1` (stereo not drawn) [Example 475, N-[(cyclopropyl-carbamoyl)methyl]-2-[4-fluoro-6-(2-oxo-1,2-dihydroquinolin-6-yl)-1,3-benzothiazol-2-yl]-2-(4-fluorobenzene-sulfonyl)acetamide] is 8.15.
As for `COCCS(=O)(=O)C(C(=O)NCC(=O)NC1CC1)c1nc2cc(-c3cnc(F)c(C)c3)ccc2s1` (stereo not drawn) [Example 78, N-[(cyclopropyl-carbamoyl)methyl]-2-[5-(6-fluoro-5-methylpyridin-3-yl)-1,3-benzothiazol-2-yl]-2-(2-methoxyethane-sulfonyl) acetamide], the pIC50 was 7.42.
`COCCOC(=O)Nc1ccc(-c2cc3sc(C(C(=O)NCC(=O)NC4CC4)S(=O)(=O)C4CC4)nc3cc2F)cc1` (stereo not drawn) [Example 536, 2-methoxyethyl N-(4-{2-[(cyclopropane-sulfonyl) ({[(cyclopropyl-carbamoyl)methyl]carbamoyl})methyl]-5-fluoro-1,3-benzothiazol-6-yl}phenyl) carbamate] gave a pIC50 of 8.70.
Turning to `Cc1cc(-c2cc3sc(C(C(=O)NCC(=O)NC4CC4)S(=O)(=O)C(C)C)nc3cc2C)ccn1` (stereo not drawn) [Example 255, N-[(cyclopropyl-carbamoyl)methyl]-2-[5-methyl-6-(2-methylpyridin-4-yl)-1,3-benzothiazol-2-yl]-2-(propane-2-sulfonyl) acetamide], the pIC50 was 8.30.
The value for `COCCNC(=O)CNC(=O)C(c1nc2ccc(-c3ccn(C)c(=O)c3)cc2s1)S(=O)(=O)c1ccc(F)cc1` (stereo not drawn) [Example 463, 2-(4-fluorobenze-nesulfonyl)-N-{[(2-methoxyethyl)carbamoyl]methyl}-2-[6-(1-methyl-2-oxo-1,2-dihydropyridin-4-yl)-1,3-benzothiazol-2-yl]acetamide] was 7.62; that for `CS(=O)(=O)C(C(=O)NCC(=O)NC1CC1)c1nc2cc(-c3ccc(NC(=O)OCc4ccccc4)cc3)c(F)cc2s1` (stereo not drawn) [Example 8, benzyl N-{4-[2-({[(cyclopropyl-carbamoyl)methyl]carbamoyl} (methane-sulfonyl)methyl)-6-fluoro-1,3-benzothiazol-5-yl]phenyl} carbamate] was 9.00; that for `Cn1ncc2ccc(-c3cc4sc(C(C(=O)NCC(=O)NC5CC5)S(C)(=O)=O)nc4cc3F)cc21` (stereo not drawn) [Example 196, N-[(cyclopropyl-carbamoyl)methyl]-2-[5-fluoro-6-(1-methyl-1H-indazol-6-yl)-1,3-benzothiazol-2-yl]-2-methanesulfonyl-acetamide] was 9.00.
Molecule `CS(=O)(=O)C(C(=O)NCC(=O)NC1CC1)c1nc2cc(-c3ccc4c(c3)NC(=O)C4)c(F)cc2s1` (stereo not drawn) [Example 365, N-[(cyclopropyl-carbamoyl)methyl]-2-[6-fluoro-5-(2-oxo-2,3-dihydro-1H-indol-6-yl)-1,3-benzothiazol-2-yl]-2-methanesulfonyl-acetamide] had a pIC50 of 7.44.
The figure for `O=C(CNC(=O)C(c1nc2c(F)cc(-c3cncnc3)cc2s1)S(=O)(=O)c1ccc(F)cc1)NC1CC1` (stereo not drawn) [Example 474, N-[(cyclopropyl-carbamoyl)methyl]-2-[4-fluoro-6-(pyrimidin-5-yl)-1,3-benzothiazol-2-yl]-2-(4-fluorobenzene-sulfonyl)acetamide] is 6.94; for `COCCS(=O)(=O)C(C(=O)NCC(=O)NC1CC1)c1nc2cc(C)c(-c3ccc4c(=O)n(C)ccc4c3)cc2s1` (stereo not drawn) [Example 189, N-[(cyclopropyl-carbamoyl)methyl]-2-(2-methoxyethane-sulfonyl)-2-[5-methyl-6-(2-methyl-1-oxo-1,2-dihydro-isoquinolin-6-yl)-1,3-benzothiazol-2-yl]acetamide] it is 8.40; for `CC(C)n1cc(-c2ccc3nc(C(C(=O)NCC(=O)NC4CC4)S(=O)(=O)Cc4cccc(C#N)c4)sc3c2)ccc1=O` (stereo not drawn) [Example 230, 2-[(3-cyanophenyl)methanesulfonyl]-N-[(cyclopropyl-carbamoyl)methyl]-2-{6-[6-oxo-1-(propan-2-yl)-1,6-dihydropyridin-3-yl]-1,3-benzothiazol-2-yl}acetamide] it is 7.34.
Regarding `COCCS(=O)(=O)C(C(=O)NCC(=O)NCCOC(C)C)c1nc2cc(-c3cnc(C)nc3)c(F)cc2s1` (stereo not drawn) [Example 356, 2-[6-fluoro-5-(2-methylpyrimidin-5-yl)-1,3-benzothiazol-2-yl]-2-(2-methoxyethane-sulfonyl)-N-({[2-(propan-2-yloxy)ethyl]carbamoyl}methyl)acetamide], the pIC50 was 7.26.
